“And” between values parts separate entries of the source, which are not always exact repeats. Identical values can stand only once. Like-named read-outs stand apart in the source and are kept apart here.

The test system of assay [1] is Monographella nivalis (syn. Microdochium nivale, Fusarium nivale). In words: Monographella nivalis (snow mould, foot rot of cereals), PDB microtiter plate, visual after 72 hrs. Conditions: Monographella nivalis. In kind it is cell-based.
The subject of assay [2] is Botrytis cinerea. Briefly: Botrytis cinerea (gray mould), PDB microtiter plate, visual after 72 hrs. Conditions: alone. Type of assay: cell-based.
The test system of assay [3] is Gaeumannomvces graminis. In words: Gaeumannomvces graminis (take-all of cereals), PDB microtiter plate, visual after 48 hrs. The conditions noted are these: solo. In kind it is cell-based. From the text: In the following Tables ‘Activity (%)’ means the assessed experimental activity (% disease control in this test when compared to untreated control leaf disks under the same conditions, which show extensive disease development) and “P” is the expected value calculated (expected) activity according to the COLBY formula (see above). The column headed ‘S?’ indicates whether or not synergy was observed, with ‘y’ meaning that synergy was observed. Gaeumannomvces graminis (Take-all of Cereals) Mycelial fragments of the fungus from cryogenic storage were directly mixed into nutrient broth (PDB potato dextrose broth). After placing a (DMSO) solution of the test compounds into a microtiter plate (96-well format) the nutrient broth containing the fungal spores was added.

Assay [4] has as its system Sphaerotheca fuliginea. In words: Sphaerotheca fuliginea (powdery mildew) on cucumber, preventive treatment. In kind it is in vivo. The conditions noted are these: solo, 2 days preventive, 10 days after application. An excerpt: In the following Tables 'Activity (%)' means the assessed experimental activity (% disease control in this test when compared to untreated control leaf disks under the same conditions, which show extensive disease development) and “P” is the expected value calculated (expected) activity according to the COLBY formula (see above). The column headed 'S?' indicates whether or not synergy was observed, with 'y' meaning that synergy was observed. Sphaerotheca fuliqinea (Powdery Mildew) on Cucumber, Preventive Treatment […] Cucumber plants with unfolded cotyledons were sprayed with a roomsprayer and 40 ml/4 plants spray volume with the test compounds, either solo or in […] shown in the table below. 2 days after application the plants were infested with spores of Sphaerotheca fuliginea.

Assay [5] deals with Sclerotinia sclerotiorum. Briefly: Sclerotinia sclerotiorum on oilseed rape, preventive treatment. In kind it is in vivo. The conditions noted are these: solo, 1 day preventive, 11 days after application. An excerpt:
(§1) In the following Tables ‘Activity (%)’ means the assessed experimental activity (% disease control in this test when compared to untreated control leaf disks under the same conditions, which show extensive disease development) and “P” is the expected value calculated (expected) activity according to the COLBY formula (see above). The column headed ‘S?’ indicates whether or not synergy was observed, with ‘y’ meaning that synergy was observed.
Sclerotinia sclerotiorum on Oilseed Rape, Preventive Treatment
The compound activity was tested under 1 day preventive conditions. Oilseed rape plants with 3 unfolded leafs were sprayed with a track sprayer and 200 I/ha spray volume with the test compounds, either solo or in tankmix as shown in the table below.
1 day after application the plants were infested with a solution of Sclerotinia sclerotiorum mycelium. The plants were placed under plastic hoods and high humidity conditions in a climate chamber at 14 h day/10 h night cycle and 15° C. Disease infestation was evaluated visually 11 days after application and average activity calculated in relation to disease severity on untreated check.

Assay [6] has as its system Septoria tritici. Briefly: Septoria tritici (leaf blotch), YBG microtiter plate, photometric growth inhibition after 6 days. Type of assay: cell-based. Conditions: Zymoseptoria tritici, 144 h, solo.
Text: as §1
Septoria tritici (Leaf Blotch):
After placing solutions of the test compounds (containing 0.2% DMSO) into a microtiter plate (96-well format), an equal amount of the nutrient broth (YBG) was added to each of the well. Finally the fungal spore solution was added. The test plates were incubated at 20° C. The inhibition of growth was determined photometrically after 6 days and the activity calculated in relation to untreated control.

Assay [7] concerns Phakopsora pachyrhizi (triazole tolerant soybeanrust strain). In words: Phakopsora pachyrhizi on soybean, preventive treatment. Type of assay: in vivo. Conditions: solo, soybean leaf discs, 1 day preventive, 11 days after application.
Assay [8] has as its system Pythium ultimum. In words: Pythium ultimum (damping off), PDB microtiter plate, visual after 48 hrs. In kind it is cell-based. The conditions noted are these: solo, rate 0.03125 ppm.
Assay [9] deals with Septoria tritici. Briefly: Septoria tritici (leaf blotch), PDB microtiter plate, visual after 72 hrs. In kind it is cell-based. Conditions: Zymoseptoria tritici, single compound, 0.0125 ppm.
Assay [10] relates to Fusarium graminearum and Fusarium culmorum. In kind it is in vivo. Conditions: solo, wheat, 1 day preventive, 9 days after application.
Assay [11] concerns Blumeria graminis f. sp. tritici (Erysiphe graminis f. sp. tritici). Briefly: Blumeria graminis f. sp. tritici / wheat / leaf disc preventative (powdery mildew on wheat). Type of assay: in vivo. Conditions: foliar, compared to untreated control leaf disks, read-out: disease control. In short, it runs like this: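 Wheat leaf segments (cv. Kanzler) on agar were sprayed with formulated compound in water, inoculated with powdery mildew 1 day later, and kept at 20° C, 60% rh (24 h dark, then 12 h light/12 h dark). Percent disease control versus untreated scored 6-8 days after application; tested at 200 ppm.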

The test system of assay [12] is Puccinia recondita f. sp. tritici. In words: Puccinia recondita f. sp. tritici / wheat / leaf disc preventative (brown rust). Conditions: foliar, compared to untreated control leaf disks, read-out: disease control. Type of assay: in vivo. An excerpt: Puccinia recondita f. sp. tritici/Wheat/Leaf Disc Preventative (Brown Rust) Wheat leaf segments cv. Kanzler were placed on agar in multiwell plates (24-well format) and sprayed with the formulated test compound diluted in water. The leaf disks were inoculated with a spore suspension of the fungus 1 day after application.

For assay [13] the test system is unchanged. Briefly: Puccinia recondita f. sp. tritici / wheat / leaf disc curative (brown rust). Type of assay: in vivo. Conditions: foliar, compared to untreated control leaf disks, read-out: disease control. Here is the method: Puccinia recondita f. sp. tritici/Wheat/Leaf Disc Curative (Brown Rust) Wheat leaf segments cv. Kanzler are placed on agar in multiwell plates (24-well format). The leaf segments are inoculated with a spore suspension of the fungus. Plates were stored in darkness at 19° C. and 75% rh. The formulated test compound diluted in water was applied 1 day after inoculation.

Assay [14] relates to Pyrenophora teres. In words: Pyrenophora teres / barley / leaf disc preventative (net blotch). In kind it is in vivo. Conditions: foliar, compared to untreated control leaf disks, read-out: disease control. An excerpt: Pyrenophora teres/Barley/Leaf Disc Preventative (Net Blotch) Barley leaf segments cv. Hasso were placed on agar in a multiwell plate (24-well format) and sprayed with the formulated test compound diluted in water. The leaf segments were inoculated with a spore suspension of the fungus 2 days after application.

Assay [15] deals with Septoria tritici. Briefly: Septoria tritici on wheat, preventive treatment. Type of assay: in vivo. Conditions: solo, wheat Riband, 1 day preventive, 18 days after application.

Regarding `Cn1cc(C(=O)Nc2cccc3c2C2CCC3C2=C(Cl)Cl)c(C(F)F)n1` (stereo not drawn) [(V), N-[9-(dichloromethylene)-1,2,3,4-tetrahydro-1,4-methanonaphthalen-5-yl]-3-(difluoromethyl)-1-methyl-1H-pyrazole-4-carboxamide, reference compound], the inhibition at 0.03125 ppm in [1] (applied alone, 0.03125 ppm) came to 0%; in assay [1] (applied alone, rate 0.03125 ppm) it was 0%; in assay [2] (Botrytis cinerea, rate 0.03125 ppm, read-out: Activity (%)) it was 50%; in assay [3] (rate 0.03125 ppm) it was 20%. For the same molecule, the inhibition at 0.0625 ppm amounted to 50% in assay [1] (applied alone, 0.0625 ppm); 50% in assay [1] (applied alone, rate 0.0625 ppm); 70% in assay [2] (Botrytis cinerea, rate 0.0625 ppm, read-out: Activity (%)); 70% in assay [3] (rate 0.0625 ppm). For the same molecule, the inhibition at 0.125 ppm turned out to be 70% in assay [1] (applied alone, 0.125 ppm) and 70% in assay [2] (Botrytis cinerea, rate 0.125 ppm). Besides, the inhibition at 0.015625 ppm was 20% in assay [2] (Botrytis cinerea, rate 0.015625 ppm) and 0% in [3] (rate 0.015625 ppm).

On to `CSC(=O)c1cccc2nnsc12` [Acibenzolar-s-methyl], for which the Activity in [4] (rate 0.6 ppm) came out at 0%; in [4] (rate 2 ppm), 0%; in assay [4] (rate 6 ppm), 0%; in assay [4] (rate 20 ppm), 4%.

For `O=C(Nc1ccccc1-c1ccc(Cl)cc1)c1cccnc1Cl` [Boscalid], the Activity is 8% in assay [5] (rate 50 g a.i./ha) and 25% in assay [5] (rate 100 g a.i./ha).

For the molecule `CC(C1CC1)C(O)(Cn1cncn1)c1ccc(Cl)cc1` (stereo not drawn) [Cyproconazole], the inhibition of growth at 0.25 ppm in assay [6] (rate 0.25 ppm) stood at 0%. For the same molecule, in assay [6] (rate 0.5 ppm), the inhibition of growth at 0.5 ppm is 64%. For the same molecule, in [6] (rate 1 ppm), the inhibition of growth at 1 ppm came to 84%. The inhibition of growth at 1.25 ppm in assay [6] (rate 1.25 ppm) came out at 39%. In [6] (rate 2.5 ppm), the inhibition of growth at 2.5 ppm came to 76%. Moreover, the Activity was found to be 38% in [7] (rate 0.5 g ai/ha) and 53% in assay [7] (rate 2 g ai/ha).

In the case of `COCC(=O)N(c1c(C)cccc1C)[C@H](C)C(=O)OC` [Mefenoxam], the “Activity (%)” value in assay [8] is 50%.

`OC(Cc1ccccc1Cl)(Cn1nc[nH]c1=S)C1(Cl)CC1` (stereo not drawn) [Prothioconazole]: the inhibition at 0.0125 ppm in [1] (applied alone, 0.0125 ppm) was determined as 0%; in assay [1] (applied alone, rate 0.0125 ppm) it was 0%; in assay [1] (single compound, rate 0.0125 ppm) it was 0%; in [2] (Botrytis cinerea, rate 0.0125 ppm) it was 0%; in [9], 70%. The molecule further displayed an inhibition at 0.0015625 ppm in assay [1] (applied alone, rate 0.0015625 ppm) of 0%. The inhibition at 0.003125 ppm in assay [1] (applied alone, rate 0.003125 ppm) is 0%. Moreover, the inhibition at 0.00625 ppm was 0% in assay [1] (applied alone, rate 0.00625 ppm) and 0% in assay [2] (Botrytis cinerea, rate 0.00625 ppm). The molecule also yielded an inhibition at 0.025 ppm in assay [2] (Botrytis cinerea, rate 0.025 ppm) of 0%. Besides, in [2] (Botrytis cinerea, rate 0.05 ppm), the inhibition at 0.05 ppm is 50%. The “Activity (%)” value in assay [2] (rate 0.05 ppm) came to 70%. Moreover, the inhibition of growth at 0.0195312 ppm in assay [6] (rate 0.01953125 ppm) is 69%. The inhibition of growth at 0.03125 ppm in assay [6] (rate 0.03125 ppm, read-out: Activity) was 9%. The inhibition of growth at 0.0390625 ppm in assay [6] (rate 0.0390625 ppm) amounted to 63%. In addition, the inhibition of growth at 0.0625 ppm in [6] (rate 0.0625 ppm) amounted to 63%. Besides, in [10] (50 g a.i./ha), the Activity came out at 55%.

On to `CCN(C)/C=N/c1cc(Br)c(OC2CC=CC2)nc1C` [Q.063], for which the pest or weed control at 200 ppm in assay [11], in assay [12], in assay [13] and in [14] was no less than 50% each time. Moreover, the Activity in assay [7] (rate 0.5 g ai/ha) and in [7] (rate 2 g ai/ha) was 0% each time.

`CCN(C)/C=N/c1cc(Br)c(OCc2ccccc2C)nc1C` [Q.151]: the pest or weed control at 200 ppm in assay [11], in assay [12] and in [13] was no less than 50% throughout. Besides, the Activity was 3% in assay [10] (200 g a.i./ha); 0% in [15] (1 g a.i./ha); 0% and 4% in [15] (3 g a.i./ha); 0% in assay [15] (9 g a.i./ha); 43% in [15] (81 g a.i./ha).

For the origin of these results see patent US9326513B2, “Fungicidal compositions” (Syngenta Participations AG, priority 2011, dated 2016).
